From US20060167269A1, “Compounds and methods for the inhibition of compounds cruzi” (priority 2001, published 2006)
“And” between values parts separate entries of the source, which are not always exact repeats. Equal entries are not always repeated. Where two headings read alike, the source gives them in different places.

Key:
C. albicans = assay: Candida broth dilution assay, C. albicans; assay type: cell-based; conditions: 80% growth inhibition, 24 h
Experimental: (§1) The compound JJ119 was tested for anti-Candida activity in a standard assay, as described below, against a number of strains of fungus. The assay compared inhibition (the effective dose causing 80% growth inhibition of the fungus) of several strains of Candida spp. using Fluconazole and compound JJ 119 (R^3 is CH3, all other variable substituents are H) of the present invention (see Table I, above).
(§2) The Candida assay followed the “Reference method for broth dilution antifungal susceptibility testing of yeasts; approved standard”, NCCLS, June, 1997. The procedure was modified to a 96 well format (as described in Modifications section 3.8). The methodology employed deviated from the approved method by reading results at 24 h rather than 48 h (since cultures of the ATCC strains were generally dense by 24 h).
(§3) In general, Candida were inoculated at a density of 2×10^3/ml in RPMI based medium in the presence of drugs at the following concentrations: 50 uM, 10 uM, 2 uM, 0.4 uM, and 0 uM. Cells were incubated at 34° C. for 24 hr and growth inhibition was scored visually for turbidity. All drugs were diluted in DMSO (except fluconazole which was diluted in water). Top concentration of DMSO in the cultures was 0.25%; DMSO alone at 0.5% was not inhibitory to C. albicans.

C. glabrata = assay: Candida broth dilution assay, C. glabrata; assay type: cell-based; conditions: 80% growth inhibition, 24 h
Experimental: as §1, §2, §3

mouse 3T3 fibroblasts = assay: inhibition of fibroblast growth (indication of potential toxicity); assay type: cell-based; conditions: inhibition of 3T3 fibroblast growth
Experimental: (§4) Compounds which appear in Table 1, below were tested […] using the Tulahuen strain of T. cruzi. See Buckner, et al., Antimicrobial Agents and Chemotherapy, 40, 2592-2597 (1996). In this assay, trypomastigotes were grown on monolayers of mouse 3T3 fibroblasts as previously described by Van Voorhis, et al., J. Exp. Med. 169: 641-652 (1989). […] The assay also tested for inhibition of fibroblast growth (an indication of potential toxicity). In virtually all instances, the compounds were non-toxic in the assay. In Table 1, if a substituent is left blank, such a substituent is defined as a hydrogen. [drawing 5]

[1] = system: T. cruzi (Tulahuen strain); assay: T. cruzi growth on monolayers of mouse 3T3 fibroblasts; assay type: cell-based, Trypanosoma cruzi
Experimental: as §4

[2] = incubation in murine serum (ester hydrolysis); assay type: in vitro ADME, mouse; conditions: 30 minutes of incubation
Description: The blood serum esterase levels of mice is very high, and it was thought that eliminating the ester group would increase the bioavailability of the aminobiphenyl over the ester.

[3] = system: T. cruzi trypomastigotes (Tulahuen); assay: anti-T. cruzi activity in infected mice; assay type: in vivo, mouse
Experimental: FIGS. 3A and B represent mouse data for compound JJ121. FIG. 3A represents Parasite levels and FIG. 3B represents Survival for treated and control mice. Mice were dosed orally at 50 mg/kg twice daily on days 1-10. They were infected with T. cruzi trypomastigotes (Tulahuen) 2×10^3 SQ at day 0. Parasitemia was quantified microscopically on a small drop of tail blood at 400×.
Despite this apparent stability, however, the results for anti-T. cruzi activity in infected mice is much better for JJ121 than for JJ37. […] All mice receiving JJ121 survive past 100 days, whereas the vehicle mice all die by day 20.

C. parapsilosis = assay: Candida broth dilution assay, C. parapsilosis; assay type: cell-based; conditions: 80% growth inhibition, 24 h
Experimental: as §1, §2, §3

C. tropicalis = assay: Candida broth dilution assay, C. tropicalis; assay type: cell-based; conditions: 80% growth inhibition, 24 h
Experimental: as §1, §2, §3

Candida spp. = assay: Candida broth dilution assay; assay type: cell-based
Experimental: as §1, §2, §3

C. krusei = assay: Candida broth dilution assay, C. krusei; assay type: cell-based; conditions: 80% growth inhibition, 24 h
Experimental: as §1, §2, §3

[4] = read-out: activity against T. cruzi
[5] = drug concentration giving 50% inhibition of T. cruzi growth on 3T3 fibroblasts, read-out: EC50 T. cruzi

Row | Compound | EC50 (mouse 3T3 fibroblasts) | EC50 [1, 5] | further results
1 | OC(Cn1cncn1)(Cn1cncn1)c1ccc(F)cc1F [Fluconazole] |  |  | ED80 (C. albicans; C. albicans strain 1): 6530 nM; ED80 (C. glabrata; C. glabrata strain 1): 104.5 μM and (32) μg/ml; ED80 (C. glabrata; C. glabrata strain 2): 6.528 μM and (2) μg/ml; ED80 (C. glabrata; C. glabrata strain 3): 208.9 μM and (64) μg/ml
2 | COC(=O)c1ccc(NCc2cncn2Cc2ccc(C#N)cc2)cc1-c1ccccc1 [JJ20] | > 10000 nM |  | EC50 [1, 4]: 40 nM
3 | COC(=O)c1ccc(NCc2cncn2Cc2ccccc2)cc1-c1ccccc1 [JJ21] | > 10000 nM | 80 nM | 
4 | N#Cc1ccc(Cn2cncc2CNc2ccc(C(=O)O)c(-c3ccccc3)c2)cc1 [JJ28] | > 10000 nM |  | EC50 [1, 4]: 1000 nM
5 | COC(=O)c1ccc(NCc2cncn2Cc2ccc(-c3ccccc3)cc2)cc1-c1ccccc1 [JJ37] | > 10000 nM |  | species found after incubation in murine serum [2]: the ester is the only species; EC50 ([1]; read-out: activity against T. cruzi amastigotes): 0.5 nM; activity in mouse models ([3]; infected mice): shows activity in mouse models, but much less than that of JJ121
6 | COC(=O)c1ccc(NCc2cncn2Cc2ccc([N+](=O)[O-])cc2)cc1-c1ccccc1 [JJ51, p-NO2-imid-BP-COOMe] | > 10000 nM | 100 nM | 
7 | COC(=O)c1ccc(NCc2cncn2Cc2ccc(C)cc2)cc1-c1ccccc1 [JJ52, p-CH3-imid-BP-COOMe] | > 10000 nM | 5 nM | 
8 | COC(=O)c1ccc(NCc2cncn2Cc2ccc(Cl)cc2)cc1-c1ccccc1 [JJ53, p-Cl-imid-BP-COOMe] | > 10000 nM | 5 nM | 
9 | COC(=O)c1ccc(NCc2cncn2Cc2ccc(Br)cc2)cc1-c1ccccc1 [JJ57, p-Br-imid-BP-COOMe] | > 10000 nM | 20 nM | 
10 | COC(=O)c1ccc(NCc2cncn2Cc2ccc(N)cc2)cc1-c1ccccc1 [JJ58, p-NH2-imid-BP-COOMe] | > 10000 nM | 250 nM | 
11 | N#Cc1ccc(Cn2cncc2CNc2cccc(-c3ccccc3)c2)cc1 [JJ73] |  | 50 nM | 
12 | COC(=O)c1ccc(NCc2cncn2Cc2cccc([N+](=O)[O-])c2)cc1-c1ccccc1 [JJ81, m-NO2-imid-BP-COOMe] | > 10000 nM | 30 nM | 
13 | COC(=O)c1ccc(NCc2cncn2Cc2cccc(C)c2)cc1-c1ccccc1 [JJ82, m-CH3-imid-BP-COOMe] | > 10000 nM | 20 nM | 
14 | COC(=O)c1ccc(NCc2cncn2Cc2cccc(N)c2)cc1-c1ccccc1 [JJ83, m-NH2-imid-BP-COOMe] | > 10000 nM | 130 nM | 
15 | COC(=O)c1ccc(NCc2cncn2Cc2cccc(Cl)c2)cc1-c1ccccc1 [JJ84, m-Cl-imid-BP-COOMe] | > 10000 nM | 20 nM | 
16 | COC(=O)c1ccc(NCc2cncn2Cc2cccc(Br)c2)cc1-c1ccccc1 [JJ85, m-Br-imid-BP-COOMe] | > 10000 nM | 20 nM | 

Row | Compound | EC50 (mouse 3T3 fibroblasts) | EC50 [1, 5] | further results
17 | COC(=O)c1ccc(NCc2cncn2Cc2cccc(C#N)c2)cc1-c1ccccc1 [JJ97, m-CN-imid-BP-COOMe] | > 10000 nM | 100 nM | 
18 | COC(=O)c1ccc(NCc2cncn2Cc2ccccc2C)cc1-c1ccccc1 [JJ101, o-CH3-imid-BP-COOMe] |  | 1000 nM | 
19 | COC(=O)c1ccc(NCc2cncn2Cc2ccccc2Br)cc1-c1ccccc1 [JJ102, o-Br-imid-BP-COOMe] |  | 100 nM | 
20 | COC(=O)c1ccc(NCc2cncn2Cc2ccccc2C#N)cc1-c1ccccc1 [JJ103, o-CN-imid-BP-COOMe] | > 10000 nM | 200 nM | 
21 | COC(=O)c1ccc(NCc2cncn2Cc2cccc(C(F)(F)F)c2)cc1-c1ccccc1 [JJ104] | > 10000 nM | 40 nM | 
22 | COC(=O)c1ccc(NCc2cncn2Cc2ccccc2N)cc1-c1ccccc1 [JJ105, o-NH2-imid-BP-COOMe] | > 10000 nM | 5 nM | 
23 | COC(=O)c1ccc(NCc2cncn2Cc2ccccc2Cl)cc1-c1ccccc1 [JJ117] | > 10000 nM |  | 
24 | O=[N+]([O-])c1ccc(Cn2cncc2CNc2cccc(-c3ccccc3)c2)cc1 [JJ118, p-NO2-imid-BP] |  | 100 nM | 
25 | Cc1ccc(Cn2cncc2CNc2cccc(-c3ccccc3)c2)cc1 [JJ119, p-CH3-imid-BP] |  | 100 nM | ED80 (C. albicans; C. albicans strain 1): 12500 nM; ED80 (C. albicans; C. albicans strain 2): 12500 nM; ED80 (C. albicans; C. albicans strain 3): 6250 nM; ED80 (C. parapsilosis; C. parapsilosis strain 1): 100000 nM and 50000 nM; ED80 (C. parapsilosis; C. parapsilosis strain 2): 25000 nM and 12500 nM; ED80 (C. tropicalis; C. tropicalis strain 1): >100000 nM; ED80 (C. tropicalis; C. tropicalis strain 2 (first line so named, r25)): >100000 nM; ED80 (C. tropicalis; C. tropicalis strain 2 (second line so named, r27)): >100000 nM; ED80 (C. glabrata; C. glabrata strain 1): 12.5 µM; ED80 (C. glabrata; C. glabrata strain 2): 6.25 µM; ED80 (C. glabrata; C. glabrata strain 3): 25 µM; anti-Candida activity (Candida spp.): favorable anti-Candida activity; ED80 (C. krusei; C. krusei strain 1): 25000 nM; ED80 (C. krusei; C. krusei strain 2): 50000 nM; ED80 (C. krusei; C. krusei strain 3): 25000 nM
26 | Clc1ccc(Cn2cncc2CNc2cccc(-c3ccccc3)c2)cc1 [JJ120, p-Cl-imid-BP] |  | 80 nM | anti-Candida activity (Candida spp.): exhibited activity
27 | c1ccc(-c2ccc(Cn3cncc3CNc3cccc(-c4ccccc4)c3)cc2)cc1 [JJ121, p-Ph-imid-BP] |  | 10 nM | reduced activity compared with JJ37 [1]: 20 fold; IC50 ([1]; T. cruzi): 10 nM; survival ([3]; mice, oral 50 mg/kg twice daily on days 1-10, vehicle mice all die by day 20): > 100 days; parasite level in mouse blood ([3]; mice, oral 50 mg/kg twice daily, within 45 days): dramatic suppression of parasite from mouse blood
28 | CCOC(=O)c1ccc(NCc2cncn2Cc2ccc(-c3ccccc3)cc2)cc1-c1ccccc1 [JJ128] | > 10000 nM | 10 nM | 
29 | CC(C)OC(=O)c1ccc(NCc2cncn2Cc2ccc(-c3ccccc3)cc2)cc1-c1ccccc1 [JJ129] | > 10000 nM | 50 nM | 
30 | O=C(OC1CCCCC1)c1ccc(NCc2cncn2Cc2ccc(-c3ccccc3)cc2)cc1-c1ccccc1 [JJ130] | > 10000 nM | 10 nM | 
31 | c1ccc(-c2ccc(Cn3cncc3CNc3ccc(-c4cc5ccccc5o4)c(-c4ccccc4)c3)cc2)cc1 [JJ138] | > 10000 nM | 100 nM | 
32 | c1ccc(-c2ccc(Cn3cncc3CNc3ccc(-c4noc5ccccc45)c(-c4ccccc4)c3)cc2)cc1 [JJ141] | > 10000 nM | 10 nM | 
